Results from the NIST ThermoML archive (doi:10.1021/je400535t).
Several values for one entry are separate records, joined by “and”; a condition that tells them apart may be missing. Identical values can stand only once.

Assay: molar heat capacity at constant pressure
Conditions: 101.33 kPa, Crystal, Small (less than 1 g) adiabatic calorimetry

O=C([O][Sb]([O]C(=O)C12CC3CC(CC(C3)C1)C2)([c]1ccccc1)([c]1ccccc1)[c]1ccccc1)C12CC3CC(CC(C3)C1)C2
Conditions	molar heat capacity at constant pressure
5 K	2.04 J/K/mol
6.41 K	4.28 J/K/mol
6.94 K	5 J/K/mol
7.48 K	6.19 J/K/mol
8.31 K	8.15 J/K/mol
9.04 K	10 J/K/mol
9.66 K	11.6 J/K/mol
10 K	12.5 J/K/mol
10.2 K	13.1 J/K/mol
10.77 K	14.6 J/K/mol
11.22 K	16 J/K/mol
11.69 K	17.3 J/K/mol
12.18 K	18.9 J/K/mol
12.78 K	20.8 J/K/mol
13.14 K	22 J/K/mol
13.61 K	23.6 J/K/mol
14.14 K	25.5 J/K/mol
14.53 K	26.8 J/K/mol
15 K	28.4 J/K/mol
15.03 K	28.42 J/K/mol
15.43 K	29.84 J/K/mol
15.87 K	31.16 J/K/mol
16.49 K	33.38 J/K/mol
17.1 K	35.31 J/K/mol
17.71 K	37.46 J/K/mol
18.32 K	39.7 J/K/mol
18.89 K	41.48 J/K/mol
19.52 K	43.6 J/K/mol
20 K	45.29 J/K/mol
20.03 K	45.33 J/K/mol
21.3 K	50 J/K/mol
21.81 K	51.4 J/K/mol
22.55 K	53.73 J/K/mol
23.78 K	58.14 J/K/mol
24.3 K	60.3 J/K/mol
25 K	62.48 J/K/mol
25.02 K	62.63 J/K/mol
26.25 K	66.95 J/K/mol
26.83 K	69 J/K/mol
27.53 K	71.5 J/K/mol
28.8 K	76.1 J/K/mol
29.43 K	78.2 J/K/mol
30 K	80.54 J/K/mol
30.12 K	81.06 J/K/mol
31.46 K	85.96 J/K/mol
32.84 K	90.86 J/K/mol
33.37 K	92.7 J/K/mol
34.23 K	95.66 J/K/mol
35 K	98.3 J/K/mol
35.64 K	100.4 J/K/mol
37.11 K	105.3 J/K/mol
38.61 K	110.2 J/K/mol
39.32 K	112.6 J/K/mol
40 K	114.6 J/K/mol
40.13 K	115 J/K/mol
41.68 K	119.9 J/K/mol
43.2 K	124.6 J/K/mol
44.84 K	129.5 J/K/mol
45 K	130 J/K/mol
46.46 K	134.4 J/K/mol
48.11 K	139.3 J/K/mol
49.81 K	144.3 J/K/mol
50 K	144.9 J/K/mol
51.54 K	149.4 J/K/mol
53.3 K	154.6 J/K/mol
55.08 K	159.8 J/K/mol
56.92 K	165 J/K/mol
58.79 K	170.2 J/K/mol
60 K	173.4 J/K/mol
60.68 K	175.3 J/K/mol
62.61 K	180.4 J/K/mol
64.56 K	185.5 J/K/mol
65.56 K	188.2 J/K/mol
66.56 K	190.7 J/K/mol
67.71 K	194 J/K/mol
68.61 K	196.1 J/K/mol
69.83 K	198.9 J/K/mol
70 K	199.7 J/K/mol
71.36 K	203.1 J/K/mol
72.79 K	206.9 J/K/mol
74.91 K	212.3 J/K/mol
76.18 K	214.9 J/K/mol
77.05 K	217.4 J/K/mol
79.88 K	223.6 J/K/mol
80 K	223.8 J/K/mol
82.03 K	228.1 J/K/mol
82.81 K	229.3 J/K/mol
84.2 K	232.4 J/K/mol
84.88 K	233.7 J/K/mol
86.94 K	238 J/K/mol
87.67 K	240.1 J/K/mol
89 K	242.4 J/K/mol
90 K	244.7 J/K/mol
90.77 K	246 J/K/mol
91.06 K	246.7 J/K/mol
93.12 K	251.6 J/K/mol
93.18 K	251.3 J/K/mol
95.1 K	255.9 J/K/mol
97.23 K	260.6 J/K/mol
99.29 K	265.2 J/K/mol
100 K	266.9 J/K/mol
101.34 K	269.7 J/K/mol
103.39 K	274.4 J/K/mol
105.44 K	279.4 J/K/mol
107.49 K	283.8 J/K/mol
109.54 K	288 J/K/mol
110 K	289.1 J/K/mol
111.58 K	292.9 J/K/mol
113.6 K	297.5 J/K/mol
115.64 K	301.6 J/K/mol
117.68 K	306.6 J/K/mol
119.72 K	310.6 J/K/mol
120 K	311.3 J/K/mol
121.6 K	314.8 J/K/mol
123.78 K	319.2 J/K/mol
125.8 K	323.9 J/K/mol
127.83 K	328.3 J/K/mol
129.85 K	332.6 J/K/mol
130 K	333.5 J/K/mol
131.86 K	337.5 J/K/mol
133.87 K	341.8 J/K/mol
135.88 K	346.7 J/K/mol
137.88 K	351.3 J/K/mol
139.88 K	353.9 J/K/mol
140 K	356 J/K/mol
141.88 K	360.2 J/K/mol
143.86 K	365 J/K/mol
145.81 K	369.5 J/K/mol
147.78 K	373.9 J/K/mol
149.76 K	378.3 J/K/mol
150 K	378.8 J/K/mol
152.23 K	383.7 J/K/mol
155.2 K	391.3 J/K/mol
158.16 K	397.8 J/K/mol
160 K	401.7 J/K/mol
161.11 K	404.3 J/K/mol
164.04 K	411.2 J/K/mol
166.97 K	417.6 J/K/mol
169.88 K	424.5 J/K/mol
170 K	424.6 J/K/mol
172.78 K	430.6 J/K/mol
175.68 K	437 J/K/mol
178.57 K	443.5 J/K/mol
180 K	447.4 J/K/mol
181.43 K	450.4 J/K/mol
184.29 K	457.3 J/K/mol
187.14 K	463.9 J/K/mol
189.9 K	470 J/K/mol
190 K	470.3 J/K/mol
192.72 K	477.1 J/K/mol
195.53 K	483.7 J/K/mol
198.33 K	489.7 J/K/mol
200 K	493.6 J/K/mol
201.12 K	496.2 J/K/mol
203.89 K	503 J/K/mol
209.43 K	515.8 J/K/mol
210 K	517.7 J/K/mol
212.2 K	523 J/K/mol
214.96 K	529.5 J/K/mol
217.72 K	536.6 J/K/mol
220 K	542.3 J/K/mol
220.47 K	543.8 J/K/mol
223.23 K	550 J/K/mol
225.98 K	556.9 J/K/mol
228.73 K	564.4 J/K/mol
230 K	567.3 J/K/mol
231.48 K	571.2 J/K/mol
234.15 K	576.4 J/K/mol
236.89 K	583.6 J/K/mol
239.63 K	590.6 J/K/mol
240 K	591.6 J/K/mol
242.35 K	597.2 J/K/mol
245.08 K	603.8 J/K/mol
247.81 K	610.3 J/K/mol
250 K	615.4 J/K/mol
250.54 K	617 J/K/mol
253.26 K	623.5 J/K/mol
255.99 K	630.5 J/K/mol
258.71 K	636.5 J/K/mol
260 K	639.5 J/K/mol
261.43 K	643.1 J/K/mol
264.15 K	650.3 J/K/mol
266.87 K	656.1 J/K/mol
269.6 K	662.2 J/K/mol
270 K	664 J/K/mol
272.32 K	669 J/K/mol
275.04 K	675.8 J/K/mol
277.75 K	683.5 J/K/mol
280 K	689.1 J/K/mol
280.46 K	690.8 J/K/mol
283.18 K	697.8 J/K/mol
285.9 K	703.7 J/K/mol
288.62 K	711.2 J/K/mol
290 K	714.3 J/K/mol
291.34 K	717.9 J/K/mol
294.06 K	724.7 J/K/mol
296.83 K	732.2 J/K/mol
298.15 K	734.7 J/K/mol
299.59 K	739 J/K/mol
300 K	739.3 J/K/mol
302.36 K	745.1 J/K/mol
305.06 K	750.5 J/K/mol
307.66 K	756.7 J/K/mol
310 K	763.8 J/K/mol
310.21 K	763.5 J/K/mol
312.71 K	769.8 J/K/mol
315.15 K	776 J/K/mol
317.53 K	781.5 J/K/mol
319.66 K	787.9 J/K/mol
320 K	787.8 J/K/mol
321.94 K	792.5 J/K/mol
324.16 K	798.1 J/K/mol
326.33 K	802.6 J/K/mol
328.44 K	808.3 J/K/mol
330 K	811.6 J/K/mol
330.51 K	813 J/K/mol
332.48 K	818.5 J/K/mol
334.44 K	823.2 J/K/mol
336.34 K	827.3 J/K/mol
338.2 K	831.4 J/K/mol
340 K	835.5 J/K/mol and 835.4 J/K/mol
341.76 K	839.5 J/K/mol
343.47 K	842.9 J/K/mol
345 K	846.6 J/K/mol
346.75 K	850.4 J/K/mol
348.1 K	853.8 J/K/mol
349.45 K	857 J/K/mol
350 K	859 J/K/mol
350.59 K	860.6 J/K/mol
352.03 K	864 J/K/mol
353.43 K	868 J/K/mol
360 K	882 J/K/mol
370 K	904 J/K/mol
380 K	926 J/K/mol
390 K	949 J/K/mol
400 K	972 J/K/mol
410 K	996 J/K/mol
420 K	1020 J/K/mol
430 K	1044 J/K/mol
440 K	1067 J/K/mol
450 K	1091 J/K/mol
460 K	1118 J/K/mol
470 K	1152 J/K/mol
480 K	1201 J/K/mol
490 K	1251 J/K/mol
498 K	1289 J/K/mol
